Reference: patent US20230414607A1, “METHODS OF TREATMENT” (BOW RIVER LLC, priority 2017, published 2023)
Read-outs that look alike come from different tables or passages of the source.

Assays:
[1] = cited from earlier work
[2] = AUC and Cmax target safe levels of CYP3A4 substrate drugs (Table 1)
Description: In various embodiments, the “Target safe levels” are non-limiting examples of the upper limit of fold change or percent of baseline where in some embodiments the benefits of treating the patient for the condition or disease for which the CYP3A4 substrate drug is indicated outweigh the risks associated with the effects of a drug-drug interaction. […] For purposes of the present methods, the blood plasma levels measured during co-administration of the CYP3A4 substrate drug with […] may be used to estimate the posaconazole DDI decay curve, e.g., using equation 1.

CYP3A4 = CYP3A4 (Homo sapiens, UniProt P08684); conditions: cited from earlier work
[3] = single 90 min infusion of irinotecan 125 mg/m^2, AUC0-24
[4] = single 90 min infusion of irinotecan 125 mg/m^2
[5] = single 90 min infusion of irinotecan 340 mg/m^2, AUC0-24
[6] = single 90 min infusion of irinotecan 340 mg/m^2
[7] = upper limit where benefits outweigh risks, approximation, can vary by about ±25%
[8] = co-administered with a strong CYP3A4 inhibitor (posaconazole, itraconazole, ritonavir, or ketoconazole)

Sequence of CYP3A4 (P08684 whole entry, the tested form may be a part): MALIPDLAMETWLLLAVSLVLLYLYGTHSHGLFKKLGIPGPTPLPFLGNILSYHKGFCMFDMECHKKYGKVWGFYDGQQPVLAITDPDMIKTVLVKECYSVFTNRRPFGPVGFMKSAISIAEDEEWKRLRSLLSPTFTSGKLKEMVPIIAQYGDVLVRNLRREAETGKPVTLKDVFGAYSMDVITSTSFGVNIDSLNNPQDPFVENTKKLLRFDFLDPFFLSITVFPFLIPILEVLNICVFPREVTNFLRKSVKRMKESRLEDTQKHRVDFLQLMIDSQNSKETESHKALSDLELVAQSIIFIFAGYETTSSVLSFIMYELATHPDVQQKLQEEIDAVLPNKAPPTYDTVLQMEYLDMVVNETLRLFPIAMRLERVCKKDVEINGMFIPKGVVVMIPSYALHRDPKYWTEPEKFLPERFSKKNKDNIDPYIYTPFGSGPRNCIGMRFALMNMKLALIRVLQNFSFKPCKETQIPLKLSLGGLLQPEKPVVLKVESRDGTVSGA

SMILES | AUC co-administration levels, Fold change (CYP3A4; in vivo) | AUC co-administration levels, Percent of baseline (CYP3A4; in vivo) | Cmax co-administration levels, Fold change (CYP3A4; in vivo) | Cmax co-administration levels, Percent of baseline (CYP3A4; in vivo) | further results
COc1cc(Nc2ncc(F)c(Nc3ccc4c(n3)NC(=O)C(C)(C)O4)n2)cc(OC)c1OC [R406] |  |  |  |  | Baseline AUC (% CV) ([1]; in vivo): 7080 (±2670) ng*h/mL; Baseline Cmax (% CV) ([1]; in vivo): 550 (±270) ng/ml
CCc1c2c(nc3ccc(O)cc13)-c1cc3c(c(=O)n1C2)COC(=O)[C@]3(O)CC [SN-38] |  |  |  |  | Baseline AUC (% CV) [1, 3]: 229 ± 108 ng·h/mL; Baseline Cmax (% CV) [1, 4]: 26.3 ± 11.9 ng/mL; Baseline AUC (% CV) [1, 5]: 474 ± 245 ng·h/mL; Baseline Cmax (% CV) [1, 6]: 56.0 ± 28.2 ng/mL
CCN1CCN(Cc2ccc(Nc3ncc(F)c(-c4cc(F)c5nc(C)n(C(C)C)c5c4)n3)nc2)CC1 [abemaciclib] | 16 fold | 1600% |  |  | AUC target safe level, Fold change ([2]; human): 1.3 fold; AUC target safe level, Percent of baseline ([2]; human): 130%
CC#CC(=O)N1CCC[C@H]1c1nc(-c2ccc(C(=O)Nc3ccccn3)cc2)c2c(N)nccn12 [acalabrutinib] | 5.1 fold | 510% | 3.9 fold | 390% | AUC target safe level, Fold change ([2]; human): 2.0 fold; AUC target safe level, Percent of baseline ([2]; human): 200%; Cmax target safe level, Fold change ([2]; human): 2.0 fold; Cmax target safe level, Percent of baseline ([2]; human): 200%
CO[C@H]1C[C@@H]2CC[C@@H](C)[C@@](O)(O2)C(=O)C(=O)N2CCCC[C@H]2C(=O)O[C@H]([C@H](C)C[C@@H]2CC[C@@H](OCCO)[C@H](OC)C2)CC(=O)[C@H](C)/C=C(\C)[C@@H](O)[C@@H](OC)C(=O)[C@H](C)C[C@H](C)/C=C/C=C/C=C/1C [everolimus] |  |  |  |  | normal baseline AUC: mean AUC0-24±SD at steady state ([1]; 10 mg everolimus): about 536±7.7 ng*h/mL; normal baseline Cmax: mean Cmax (% CV), steady state ([1]; 10 mg everolimus): 59.7±16.9 (21.7%) ng/mL
CCc1c2c(nc3ccc(OC(=O)N4CCC(N5CCCCC5)CC4)cc13)-c1cc3c(c(=O)n1C2)COC(=O)[C@]3(O)CC [irinotecan] |  |  |  |  | Baseline AUC (% CV) [1, 3]: 10,200 ng*h/mL; Baseline Cmax (% CV) [1, 4]: 1,660 ± 797 ng/ml; Baseline AUC (% CV) [1, 5]: 20,604 ng*h/mL; Baseline Cmax (% CV) [1, 6]: 3,392 ± 874 ng/ml
COc1cc2c(cc1OC)CC(=O)N(CCCN(C)C[C@H]1Cc3cc(OC)c(OC)cc31)CC2 [ivabradine] | 7 fold | 700% | 3.25 fold | 325% | AUC target safe level, Fold change ([2]; human): 2.1 fold; AUC target safe level, Percent of baseline ([2]; human): 210%; Cmax target safe level, Fold change ([2]; human): 1.6 fold; Cmax target safe level, Percent of baseline ([2]; human): 160%
N#Cc1ccnc(N2C(=O)CC[C@H]2C(=O)N(c2cncc(F)c2)[C@H](C(=O)NC2CC(F)(F)C2)c2ccccc2Cl)c1 [ivosidenib] | 2.69 fold | 269% |  |  | AUC target safe level, Fold change ([2]; human): 1.73 fold; AUC target safe level, Percent of baseline ([2]; human): 173%; Cmax target safe level, Fold change ([2]; human): 1.52 fold; Cmax target safe level, Percent of baseline ([2]; human): 152%
O=C(Nc1cnn2ccc(N3CCC[C@@H]3c3cc(F)ccc3F)nc12)N1CC[C@H](O)C1 [larotrectinib] | 4.3 fold | 430% | 2.8 fold | 280% | 
C[C@H]1Oc2cc(cnc2N)-c2c(nn(C)c2C#N)CN(C)C(=O)c2ccc(F)cc21 [lorlatinib] | 1.42 fold | 142% | 1.24 fold | 124% | 
C=CCN1CC[C@]23c4c5ccc(O)c4O[C@H]2[C@@H](OCCOCCOCCOCCOCCOCCOCCOC)CC[C@@]3(O)[C@H]1C5 [naloxegol] |  |  |  |  | AUC target safe level, Fold change [2, 7]: 3.41 fold; AUC target safe level, Percent of baseline [2, 7]: 341%; Cmax target safe level, Fold change [2, 7]: 2.86 fold; Cmax target safe level, Percent of baseline [2, 7]: 286%; AUC co-administration levels, Fold change (CYP3A4; [8]): 12.85 fold; AUC co-administration levels, Percent of baseline (CYP3A4; [8]): 1285%; Cmax co-administration levels, Fold change (CYP3A4; [8]): 9.58 fold; Cmax co-administration levels, Percent of baseline (CYP3A4; [8]): 958%
Cc1cn(-c2cc(NC(=O)c3ccc(C)c(Nc4nccc(-c5cccnc5)n4)c3)cc(C(F)(F)F)c2)cn1 [nilotinib] | 3 fold | 300% |  |  | 
O=C(c1cc(Cc2n[nH]c(=O)c3ccccc23)ccc1F)N1CCN(C(=O)C2CC2)CC1 [olaparib] | 2.2 fold | 220% | 1.1 fold | 110% | 
CNC(=O)c1cc(Oc2ccc(NC(=O)Nc3ccc(Cl)c(C(F)(F)F)c3)c(F)c2)ccn1 [regorafenib] | 1.33 fold | 133% |  |  | 
CN(C)C(=O)c1cc2cnc(Nc3ccc(N4CCNCC4)cn3)nc2n1C1CCCC1 [ribociclib] | 3.2 fold | 320% | 1.7 fold | 170% | 
O=C(NC[C@H]1CN(c2ccc(N3CCOCC3=O)cc2)C(=O)O1)c1ccc(Cl)s1 [rivaroxaban] | 1.76 fold | 176% | 1.56 fold | 156% | AUC target safe level, Fold change ([2]; human): 1.52 fold; AUC target safe level, Percent of baseline ([2]; human): 152%; Cmax target safe level, Percent of baseline ([2]; human): 0%
N#C[C@@H]1C[C@@H]2C[C@@H]2N1C(=O)[C@@H](N)C12CC3CC(CC(O)(C3)C1)C2 [saxagliptin] | 3.67 fold | 367% | 2.44 fold | 244% | 
CCc1cc(/C(C)=N/OCc2ccc(C3CCCCC3)c(C(F)(F)F)c2)ccc1CN1CC(C(=O)O)C1 [siponimod] | 2 fold | 200% |  |  | AUC target safe level, Fold change ([2]; human): 10.4 fold; AUC target safe level, Percent of baseline ([2]; human): 1040%
O=C(O[C@H]1CN2CCC1CC2)N1CCc2ccccc2[C@@H]1c1ccccc1 [solifenacin succinate] |  |  |  |  | normal baseline AUC: mean AUC0-24 (% CV) at steady state ([1]; in vivo, 5 mg): about 463 (37%) ng*h/mL; normal baseline Cmax: mean Cmax (% CV), steady state ([1]; in vivo, 5 mg): 24.01 (30%) ng/mL; normal baseline AUC: mean AUC0-24 (% CV) at steady state ([1]; in vivo, 10 mg): about 749 (22%) ng*h/mL; normal baseline Cmax: mean Cmax (% CV), steady state ([1]; in vivo, 10 mg): 40.61 (21%) ng/mL
Cc1c(C(=O)Nc2ccc(N3C[C@@H](C)O[C@@H](C)C3)nc2)cccc1-c1ccc(OC(F)(F)F)cc1 [sonidegib] | 2.2 fold | 220% | 1.5 fold | 150% | Cmax target safe level, Percent of baseline ([2]; human): 0%
CN1CC(=O)N2[C@H](c3ccc4c(c3)OCO4)c3[nH]c4ccccc4c3C[C@@H]2C1=O [tadalafil] |  |  |  |  | normal baseline AUC: mean AUC0-∞ (% CV) ([1]; 10 mg tadalafil): about 3647 (34.0%) μg*h/L; normal baseline Cmax: mean Cmax (% CV) ([1]; 10 mg tadalafil): 190 (21.7%) μg/L; normal baseline Cmax: mean Cmax (% CV) ([1]; 20 mg tadalafil): 548 (24.0%) μg/L
CC1(C)CCC(CN2CCN(c3ccc(C(=O)NS(=O)(=O)c4ccc(NCC5CCOCC5)c([N+](=O)[O-])c4)c(Oc4cnc5[nH]ccc5c4)c3)CC2)=C(c2ccc(Cl)cc2)C1 [venetoclax] | 1.78 fold | 178% | 1.06 fold | 106% | 
